Test results published in patent publication US20050004211A1, “Pharmaceutical compositions comprising aryl-substituted acyclic enediyne compounds” (KAOHSIUNG MEDICAL UNIVERSITY, priority 2003, published 2005).
Marks after values point to notes of the source that are not given here.

Tests used:
Breast cancer cell MCF-7 = experiment: Preliminary cytotoxicity test; format: cell-based, human
[1] = tested on: Non-small cell Lung cancer cell NCI-H460; experiment: Preliminary cytotoxicity test; format: cell-based, human
CNS cancer cell SF-268 = experiment: Preliminary cytotoxicity test; format: cell-based, human
K-562 = details: Table 4; for CC50: read-out: LC50 K-562; for GI50: read-out: GI50 K-562
NCI-H23 = details: read-out: GI50 NCI-H23; Table 4
NCI-H522 = details: Table 4; for CC50: read-out: LC50 NCI-H522; for GI50: read-out: GI50 NCI-H522
KM12 = details: Table 4; for CC50: read-out: LC50 KM12
SW-620 = details: Table 4; for GI50: read-out: GI50 SW-620; for CC50: read-out: LC50 SW-620
SF-295 = details: Table 4; for GI50: read-out: GI50 SF-295; for CC50: read-out: LC50 SF-295
U251 = details: Table 4; for CC50: read-out: LC50 U251; for GI50: read-out: GI50 U251
SK-MEL-5 = details: Table 4; for GI50: read-out: GI50 SK-MEL-5; for CC50: read-out: LC50 SK-MEL-5
UACC-82 = details: read-out: GI50 UACC-82; Table 4
IGROV1 = details: Table 4; for GI50: read-out: GI50 IGROV1; for CC50: read-out: LC50 IGROV1
CAKI-1 = details: Table 4; for GI50: read-out: GI50 CAKI-1; for CC50: read-out: LC50 CAKI-1
SN12C = details: read-out: GI50 SN12C; Table 4
PC-3 = details: read-out: GI50 PC-3; Table 4
NCI/ADR-RES = details: Table 4; for GI50: read-out: GI50 NCI/ADR-RES; for CC50: read-out: LC50 NCI/ADR-RES
SR = experiment: NCI full panel screen; details: Table 4; for CC50: read-out: LC50 SR; for GI50: read-out: GI50 SR
OVCAR-3 = experiment: NCI full panel screen; details: Homo sapiens; for GI50: OVCAR-3, read-out: GI50 OVCAR-3; for CC50: OVCAR-3, read-out: LC50 OVCAR-3
DU-145 = experiment: NCI full panel screen; details: Table 4; for CC50: read-out: LC50 DU-145; for GI50: read-out: GI50 DU-145
Leukemia cell lines = experiment: NCI full panel screen, panel average; details: Homo sapiens, read-out: cytotoxicity, average of all Leukemia cell lines
[2] = tested on: Non-Small Cell Lung Cancer cell lines; experiment: NCI full panel screen, panel average; details: Homo sapiens, read-out: cytotoxicity, average of all Non-Small Cell Lung Cancer cell lines
Colon Cancer cell lines = experiment: NCI full panel screen, panel average; details: Homo sapiens, read-out: cytotoxicity, average of all Colon Cancer cell lines
CNS Cancer cell lines = experiment: NCI full panel screen, panel average; details: Homo sapiens, read-out: cytotoxicity, average of all CNS Cancer cell lines
Melanoma cell lines = experiment: NCI full panel screen, panel average; details: Homo sapiens, read-out: cytotoxicity, average of all Melanoma cell lines
[3] = tested on: Ovarian Cancer cell lines; experiment: NCI full panel screen, panel average; details: Homo sapiens, read-out: cytotoxicity, average of all Ovarian Cancer cell lines
Renal Cancer cell lines = experiment: NCI full panel screen, panel average; details: Homo sapiens, read-out: cytotoxicity, average of all Renal Cancer cell lines
[4] = tested on: Prostate Cancer cell lines; experiment: NCI full panel screen, panel average; details: Homo sapiens, read-out: cytotoxicity, average of all Prostate Cancer cell lines
Breast Cancer cell lines = experiment: NCI full panel screen, panel average; details: Homo sapiens, read-out: cytotoxicity, average of all Breast Cancer cell lines
MDA-MB-435 = details: read-out: GI50 MDA-MB-435; Table 4

N#Cc1ccccc1C#CC=CC#Cc1ccccn1 [Compound 27, 2-(6-(2-pyridinyl)-3-hexen-1,5-diynyl)benzonitrile]
Growth percentage, Breast cancer cell MCF-7 (Breast cancer cell MCF-7): 49% | Growth percentage, Non-small cell Lung cancer cell NCI-H460 [1]: 23* % | Growth percentage, CNS cancer cell SF-268 (CNS cancer cell SF-268): 83% | CC50 (K-562): > 100 µM | GI50 (NCI-H23): 12.3 µM | CC50 (NCI-H522): 84.7 µM | CC50 (KM12): 80.4 µM | GI50 (SW-620): 12.6 µM | CC50 (SW-620): 80.5 µM | GI50 (SF-295): 20.1 µM | CC50 (SF-295): > 100 µM | CC50 (U251): 79 µM | GI50 (SK-MEL-5): 2990 nM | CC50 (SK-MEL-5): 41.6 µM | GI50 (UACC-82): 15.3 µM | GI50 (IGROV1): 17 µM | CC50 (IGROV1): 79.1 µM | GI50 (CAKI-1): 21.8 µM | CC50 (CAKI-1): > 100 µM | GI50 (SN12C): 20.4 µM | GI50 (PC-3): 13.7 µM | GI50 (NCI/ADR-RES): 16.5 µM | CC50 (NCI/ADR-RES): 71 µM | CC50 (SR): > 100 µM | GI50 (OVCAR-3): 4.26 µM | CC50 (OVCAR-3): 56.9 µM | CC50 (DU-145): > 100 µM | IC50 (Leukemia cell lines): 12.8 µM | IC50 [2]: 19.6 µM | IC50 (Colon Cancer cell lines): 16.3 µM | IC50 (CNS Cancer cell lines): 20.9 µM | IC50 (Melanoma cell lines): 14.2 µM | IC50 [3]: 27.3 µM | IC50 (Renal Cancer cell lines): 21.7 µM | IC50 [4]: 21.2 µM | IC50 (Breast Cancer cell lines): 14.3 µM

N#Cc1ccccc1C#CC=CC#Cc1cnccn1 [Compound 30, 2-(6-(2-pyrazinyl)-3-hexen-1,5-diynyl)benzonitrile]
Growth percentage, Breast cancer cell MCF-7 (Breast cancer cell MCF-7): 73% | Growth percentage, Non-small cell Lung cancer cell NCI-H460 [1]: 8* % | Growth percentage, CNS cancer cell SF-268 (CNS cancer cell SF-268): 84% | GI50 (K-562): 4880 nM | CC50 (K-562): > 100 µM | GI50 (NCI-H23): 15.9 µM | GI50 (NCI-H522): 14.8 µM | CC50 (NCI-H522): > 100 µM | GI50 (KM12; read-out: GI50 KM12): 4.39 µM | CC50 (KM12): > 100 µM | GI50 (SW-620): 6.98 µM | CC50 (SW-620): > 100 µM | GI50 (SF-295): 17.6 µM | CC50 (SF-295): > 100 µM | GI50 (U251): 36.1 µM | CC50 (U251): > 100 µM | GI50 (SK-MEL-5): 19600 nM | CC50 (SK-MEL-5): > 100 µM | GI50 (IGROV1): 46.2 µM | CC50 (IGROV1): > 100 µM | GI50 (CAKI-1): 21.6 µM | CC50 (CAKI-1): > 100 µM | GI50 (SN12C): 22.6 µM | GI50 (PC-3): 30.9 µM | GI50 (NCI/ADR-RES): 15.9 µM | CC50 (NCI/ADR-RES): > 100 µM | GI50 (MDA-MB-435): 5300 nM | GI50 (SR): 4300 nM | CC50 (SR): > 100 µM | GI50 (OVCAR-3): 16.6 µM | CC50 (OVCAR-3): > 100 µM | GI50 (DU-145): 36.3 µM | CC50 (DU-145): > 100 µM | IC50 (Leukemia cell lines): 5.05 µM | IC50 [2]: 11.8 µM | IC50 (Colon Cancer cell lines): 7.54 µM | IC50 (CNS Cancer cell lines): 32.2 µM | IC50 (Melanoma cell lines): 18.7 µM | IC50 [3]: 38.1 µM | IC50 (Renal Cancer cell lines): 27 µM | IC50 [4]: 33.6 µM | IC50 (Breast Cancer cell lines): 33.3 µM

N#Cc1ccccc1C#CC=CC#Cc1ccccc1N [Compound 32, 2-[6-(o-anilinyl)-3-hexen-1,5-diynyl]benzonitrile]
Growth percentage, Breast cancer cell MCF-7 (Breast cancer cell MCF-7): 36% | Growth percentage, Non-small cell Lung cancer cell NCI-H460 [1]: 8* % | Growth percentage, CNS cancer cell SF-268 (CNS cancer cell SF-268): 27* % | GI50 (K-562): 480 nM | CC50 (K-562): > 100 µM | GI50 (NCI-H23): 0.8 µM | GI50 (NCI-H522): 0.3 µM | CC50 (NCI-H522): 8.62 µM | CC50 (KM12): > 100 µM | GI50 (SW-620): 0.39 µM | CC50 (SW-620): > 100 µM | GI50 (SF-295): 0.24 µM | CC50 (SF-295): 12.4 µM | GI50 (U251): 0.43 µM | CC50 (U251): > 100 µM | GI50 (SK-MEL-5): 440 nM | CC50 (SK-MEL-5): 33.1 µM | GI50 (UACC-82): 0.37 µM | GI50 (IGROV1): 0.27 µM | CC50 (IGROV1): > 100 µM | GI50 (CAKI-1): 0.13 µM | CC50 (CAKI-1): 35.9 µM | GI50 (SN12C): 0.41 µM | GI50 (PC-3): 2.78 µM | GI50 (NCI/ADR-RES): 0.37 µM | CC50 (NCI/ADR-RES): > 100 µM | GI50 (MDA-MB-435): 110 nM | GI50 (SR): 250 nM | CC50 (SR): > 100 µM | GI50 (OVCAR-3): 0.17 µM | CC50 (OVCAR-3): 98.4 µM | GI50 (DU-145): 3.48 µM | CC50 (DU-145): > 100 µM | IC50 (Leukemia cell lines): 0.43 µM | IC50 [2]: 1.7 µM | IC50 (Colon Cancer cell lines): 0.47 µM | IC50 (CNS Cancer cell lines): 9.44 µM | IC50 (Melanoma cell lines): 0.77 µM | IC50 [3]: 1.55 µM | IC50 (Renal Cancer cell lines): 0.66 µM | IC50 [4]: 3.13 µM | IC50 (Breast Cancer cell lines): 2 µM
